In ChEMBL document CHEMBL1201862, “PubChem BioAssay data set” (2004):
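Interpolation was linear, between the two tested concentrations surrounding the appropriate level; five concentrations were tested over 48 hours in 96-well plates. GI50: concentration for 50% inhibition of growth.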 Calls of active or inactive are those of the source. Cut-off read from the data, not from the text of the source: active = GI50 up to about 1.1 µM and inactive = higher.

Experiments:
Test in all cases: DTP human tumour cell line panel, 48 h
786-0 = test system: 786-0
BT-549 = test system: BT-549
COLO 205 = test system: COLO 205
DU-145 = test system: DU-145
EKVX = test system: EKVX
HCC 2998 = test system: HCC 2998
HCT-15 = test system: HCT-15
HL-60 = test system: HL-60
HOP-92 = test system: HOP-92
MDA-MB-435 = test system: MDA-MB-435
NCI-H226 = test system: NCI-H226
NCI-H522 = test system: NCI-H522
OVCAR-4 = test system: OVCAR-4
OVCAR-5 = test system: OVCAR-5
SW-620 = test system: SW-620
T47D = test system: T47D
U-251 = test system: U-251
UACC-257 = test system: UACC-257
SNB-75 = test system: SNB-75

| Structure (SMILES) | GI50 (786-0) | GI50 (BT-549) | GI50 (COLO 205) | GI50 (DU-145) | GI50 (EKVX) | GI50 (HCC 2998) | GI50 (HCT-15) | GI50 (HL-60) | GI50 (HOP-92) | GI50 (MDA-MB-435) | GI50 (NCI-H226) | GI50 (NCI-H522) | GI50 (OVCAR-4) | GI50 (OVCAR-5) | GI50 (SW-620) | GI50 (T47D) | GI50 (U-251) | GI50 (UACC-257) | GI50 (SNB-75) |
| --- | --- | --- | --- | --- | --- | --- | --- | --- | --- | --- | --- | --- | --- | --- | --- | --- | --- | --- | --- |
| CNC(=O)Nc1nc2cc([N+](=O)[O-])ccc2[nH]1 | > 100 µM (inactive) | 49.9 µM (inactive) | > 100 µM (inactive) | > 100 µM (inactive) | > 100 µM (inactive) | > 100 µM (inactive) | > 100 µM | 49 µM (inactive) | 86.1 µM (inactive) | > 100 µM (inactive) | > 100 µM (inactive) | 44.1 µM (inactive) | > 100 µM (inactive) | > 100 µM (inactive) | > 100 µM (inactive) | > 100 µM (inactive) | > 100 µM (inactive) | > 100 µM (inactive) |  |
| CN(C)CCCN1C(=S)N(CCCN(C)C)c2c3ccccc3nc3c([N+](=O)[O-])ccc1c23 | 4.82 µM (inactive) | 14.7 µM (inactive) | 1.71 µM (inactive) | 6.44 µM (inactive) | 5.5 µM (inactive) | 4.21 µM (inactive) | 5.09 µM |  | 5.33 µM (inactive) | 5.47 µM (inactive) | 8.02 µM (inactive) | 1.77 µM (inactive) | 11.5 µM (inactive) | 13.8 µM (inactive) | 3.05 µM (inactive) | 15 µM (inactive) | 6.87 µM (inactive) | 6.01 µM (inactive) | 7.46 µM (inactive) |
| O=c1c2cccnc2cc(-c2ccccc2)n1CCO | > 100 µM (inactive) | > 100 µM (inactive) | > 100 µM (inactive) | > 100 µM (inactive) | > 100 µM (inactive) | > 100 µM (inactive) | > 100 µM | > 100 µM (inactive) |  | > 100 µM (inactive) | > 100 µM (inactive) | > 100 µM (inactive) | > 100 µM (inactive) | > 100 µM (inactive) | > 100 µM (inactive) | > 100 µM (inactive) | > 100 µM (inactive) | > 100 µM (inactive) | > 100 µM (inactive) |
| CCCOc1ccc2sc(NC(=O)c3cc([N+](=O)[O-])cc([N+](=O)[O-])c3)nc2c1 | 52.2 µM (inactive) | 47.8 µM (inactive) | 54.1 µM (inactive) | 60.7 µM (inactive) | 19.4 µM (inactive) |  | 53.7 µM | 67.3 µM (inactive) | 16 µM (inactive) | 36.7 µM (inactive) | 27.9 µM (inactive) |  | 18.8 µM (inactive) | > 100 µM (inactive) | 31 µM (inactive) | 53.2 µM (inactive) | 32.4 µM (inactive) |  | 30.5 µM (inactive) |
| CCOC(=O)c1cn2c(n1)sc1cc(F)ccc12 | 52.8 µM (inactive) | 77.6 µM (inactive) | > 100 µM (inactive) | > 100 µM (inactive) | > 100 µM (inactive) | > 100 µM (inactive) | > 100 µM |  | > 100 µM (inactive) | 42.3 µM (inactive) | > 100 µM (inactive) | > 100 µM (inactive) | > 100 µM (inactive) | 25.2 µM (inactive) | > 100 µM (inactive) | > 100 µM (inactive) | 77.6 µM (inactive) | > 100 µM (inactive) | 58.5 µM (inactive) |
| COc1cccc(/C=C2\S/C(=N/Nc3nc(C)c(C)s3)NC2=O)c1O | > 100 µM (inactive) | > 100 µM (inactive) | > 100 µM (inactive) | > 100 µM (inactive) | 37 µM (inactive) | 61.5 µM (inactive) | > 100 µM | 56.1 µM (inactive) | > 100 µM (inactive) | > 100 µM (inactive) | > 100 µM (inactive) |  | > 100 µM (inactive) | > 100 µM (inactive) | > 100 µM (inactive) | 19 µM (inactive) | > 100 µM (inactive) | > 100 µM (inactive) | > 100 µM (inactive) |
| CN1C(=O)N(C)C2(CCN(CCCCCCF)CC2)C1=O | > 100 µM (inactive) | 23.3 µM (inactive) | > 100 µM (inactive) | > 100 µM (inactive) | > 100 µM (inactive) | > 100 µM (inactive) | > 100 µM | > 100 µM (inactive) |  | 26 µM (inactive) | > 100 µM (inactive) | > 100 µM (inactive) |  | > 100 µM (inactive) | > 100 µM (inactive) | > 100 µM (inactive) | > 100 µM (inactive) | > 100 µM (inactive) | > 100 µM (inactive) |
| Nc1cc(N2CCOCC2)nc(=O)n1-c1ccccc1 | > 100 µM (inactive) | > 100 µM (inactive) | > 100 µM (inactive) | > 100 µM (inactive) | > 100 µM (inactive) | > 100 µM (inactive) | > 100 µM | 21.4 µM (inactive) | > 100 µM (inactive) | > 100 µM (inactive) | > 100 µM (inactive) |  |  | > 100 µM (inactive) | > 100 µM (inactive) | > 100 µM (inactive) | > 100 µM (inactive) | > 100 µM (inactive) | > 100 µM (inactive) |
